From ChEMBL document CHEMBL1201862, “PubChem BioAssay data set” (2004)
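A five-concentration, 48-hour dose response in 96-well plates underlies each endpoint, interpolated linearly between surrounding concentrations. Here, GI50 denotes the concentration required for 50% inhibition of growth.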 The source made the active and inactive calls. No stated cut-off is given here; in the data, active = GI50 up to about 1.1 µM and inactive = higher.

Assays:
Assay in all cases: DTP human tumour cell line panel, 48 h
UACC-62 = test system: UACC-62
SF-539 = test system: SF-539
SK-MEL-28 = test system: SK-MEL-28
U-251 = test system: U-251
RPMI-8226 = test system: RPMI-8226
HCT-116 = test system: HCT-116
Hs-578T = test system: Hs-578T
A498 = test system: A498
CAKI-1 = test system: CAKI-1
A549 = test system: A549
K562 = test system: K562
SK-MEL-5 = test system: SK-MEL-5
T47D = test system: T47D
SK-OV-3 = test system: SK-OV-3
OVCAR-5 = test system: OVCAR-5
LOX IMVI = test system: LOX IMVI
EKVX = test system: EKVX
NCI-H226 = test system: NCI-H226
UACC-257 = test system: UACC-257
NCI-H522 = test system: NCI-H522

| SMILES | GI50 (UACC-62) | GI50 (SF-539) | GI50 (SK-MEL-28) | GI50 (U-251) | GI50 (RPMI-8226) | GI50 (HCT-116) | GI50 (Hs-578T) | GI50 (A498) | GI50 (CAKI-1) | GI50 (A549) | GI50 (K562) | GI50 (SK-MEL-5) | GI50 (T47D) | GI50 (SK-OV-3) | GI50 (OVCAR-5) | GI50 (LOX IMVI) | GI50 (EKVX) | GI50 (NCI-H226) | GI50 (UACC-257) | GI50 (NCI-H522) |
| --- | --- | --- | --- | --- | --- | --- | --- | --- | --- | --- | --- | --- | --- | --- | --- | --- | --- | --- | --- | --- |
| CN(C)CC1CCC/C(=C\c2ccc(OC(=O)/C=C/c3ccccc3)cc2)C1=O (centres undefined) | 3.34 µM (inactive) | 1.77 µM (inactive) | 2.65 µM (inactive) | 1.72 µM (inactive) | 0.656 µM (active) | 1.34 µM (inactive) | 3.28 µM (inactive) | 7.28 µM (inactive) | 1.82 µM (inactive) | 2.75 µM (inactive) | 3.06 µM (inactive) | 3.64 µM (inactive) | 1.06 µM (active) | 24.2 µM (inactive) | 2.45 µM (inactive) | 0.538 µM (active) | 2.18 µM (inactive) | 2.96 µM (inactive) | 3.48 µM (inactive) | – |
| NS(=O)(=O)c1ccc(N=C2C(=O)Nc3ccccc32)cc1 | > 100 µM (inactive) | – | > 100 µM (inactive) | > 100 µM (inactive) | > 100 µM (inactive) | > 100 µM (inactive) | > 100 µM (inactive) | > 100 µM (inactive) | > 100 µM (inactive) | > 100 µM (inactive) | 65.8 µM (inactive) | 36.8 µM (inactive) | > 100 µM (inactive) | > 100 µM (inactive) | > 100 µM (inactive) | 57.7 µM (inactive) | > 100 µM (inactive) | > 100 µM (inactive) | > 100 µM (inactive) | 70.8 µM (inactive) |
| COC(=O)C1CCC(=O)N1CN(C(C)=O)c1cc(OC)ccc1OC (centres undefined) | > 100 µM (inactive) | > 100 µM (inactive) | > 100 µM (inactive) | > 100 µM (inactive) | > 100 µM (inactive) | > 100 µM (inactive) | > 100 µM (inactive) | > 100 µM (inactive) | > 100 µM (inactive) | > 100 µM (inactive) | > 100 µM (inactive) | > 100 µM (inactive) | > 100 µM (inactive) | > 100 µM (inactive) | > 100 µM (inactive) | > 100 µM (inactive) | > 100 µM (inactive) | > 100 µM (inactive) | > 100 µM (inactive) | > 100 µM (inactive) |
| CCCCOC(=O)NC(Nc1cccc(C(F)(F)F)c1)(C(F)(F)F)C(F)(F)F | 58.5 µM (inactive) | 73.6 µM (inactive) | > 100 µM (inactive) | 36.1 µM (inactive) | 17.2 µM (inactive) | > 100 µM (inactive) | 44.7 µM (inactive) | > 100 µM (inactive) | 49.2 µM (inactive) | 66.8 µM (inactive) | 30.5 µM (inactive) | 49.9 µM (inactive) | 13.5 µM (inactive) | – | > 100 µM (inactive) | 32.1 µM (inactive) | 51.5 µM (inactive) | 53.7 µM (inactive) | 84.9 µM (inactive) | 56.4 µM (inactive) |
| CC1CC(NN(C)C)C2(C(N)=O)C(N)=NC(=O)C12C#N (centres undefined) | > 100 µM (inactive) | > 100 µM (inactive) | > 100 µM (inactive) | > 100 µM (inactive) | > 100 µM (inactive) | > 100 µM (inactive) | > 100 µM (inactive) | > 100 µM (inactive) | > 100 µM (inactive) | > 100 µM (inactive) | > 100 µM (inactive) | > 100 µM (inactive) | > 100 µM (inactive) | > 100 µM (inactive) | > 100 µM (inactive) | > 100 µM (inactive) | > 100 µM (inactive) | > 100 µM (inactive) | > 100 µM (inactive) | > 100 µM (inactive) |
| CC1CC[C@@]2(OC1)OC1C[C@H]3[C@@H]4CCC5CC(O)CC[C@]5(C)[C@H]4C/C(=N\N(C)C)[C@]3(C)C1[C@@H]2C (some centres undefined) | 27.6 µM (inactive) | 23.8 µM (inactive) | 43.7 µM (inactive) | 31 µM (inactive) | 26.9 µM (inactive) | 23.3 µM (inactive) | 28.6 µM (inactive) | 23 µM (inactive) | – | 35.3 µM (inactive) | 28.2 µM (inactive) | 21.7 µM (inactive) | 31.8 µM (inactive) | 18.7 µM (inactive) | 27.1 µM (inactive) | 26.7 µM (inactive) | – | 34.2 µM (inactive) | 38.8 µM (inactive) | – |
| CCOC(=O)c1sc2c(c1OC(=O)c1cc(OC)c(OC)c(OC)c1)c(=O)n(-c1ccccc1)c(=S)n2-c1ccccc1 | 51.8 µM (inactive) | > 100 µM (inactive) | > 100 µM (inactive) | 49.8 µM (inactive) | 93.1 µM (inactive) | > 100 µM (inactive) | 51.2 µM (inactive) | > 100 µM (inactive) | > 100 µM (inactive) | > 100 µM (inactive) | 65 µM (inactive) | > 100 µM (inactive) | 41.6 µM (inactive) | > 100 µM (inactive) | > 100 µM (inactive) | > 100 µM (inactive) | 45.5 µM (inactive) | > 100 µM (inactive) | > 100 µM (inactive) | 4.81 µM (inactive) |
